Experimental data as given in patent EP3097904A1, “DEPIGMENTING AGENTS TO LIGHTEN THE SKIN” (priority 2015, dated 2016).

What was measured:
[1] = system: normal murine melanocytes; experiment: Melanin content in normal murine melanocytes (basal); format: cell-based; conditions: 48 hours; for melanin content: increasing doses, expressed as percentage of control (Figures 1, 2)
Protocol: (§1) Normal murine melanocytes were seeded and treated for 48 hours with increasing doses of umbelliprenin, 100µM of kojic acid (KA) or carrier solvent (DMSO). […] The cell pellet was washed twice with phosphate buffer saline, transferred in an Eppendorf vial and centrifuged at 5000 g for 5 minutes at 4°C. The supernatant was discarded. 200 µL of water and 1 mL of EtOH/Ether (1/1) were added to precipitate melanin. The mixture was incubated for 15 minutes at room temperature, centrifuged at 5000 g for 5 minutes and the supernatant was discarded. The precipitate was solubilized by 300 µL of a mixture of aqueous sodium hydroxide (1 M)/DMSO 90/10 after heating at 80°C for 1 hour. The absorbance was measured at 405 nm. The melanin content was expressed as a percentage of control (=100%).
Normal murine melanocytes were seeded and treated for 48 hours with increasing doses of PBPE, tesmilifene (Tes) or carrier solvent (ethanol).
Normal murine melanocytes were seeded and treated for 48 hours with fixed doses of PBPE, tesmilifene, umbelliprenin or a combination of those, or carrier solvent (DMSO for umbelliprenin, ethanol for tesmilifene or PBPE and EtOH/DMSO 1/1 for the combination).
(§2) The cell pellet was washed twice with phosphate buffer saline, transferred in an Eppendorf vial and centrifuged at 5000 g for 5 minutes at 4°C. The supernatant was discarded. Cell lysis was performed with an aqueous solution of sodium deoxycholate 0.5% (1 mL per cell pellet). The suspension was incubated at 0°C for 15 minutes and then 3 mL of a freshly prepared solution of L-DOPA (0.1% w/w) in phosphate buffer at 0.1 M (pH 6.8) was added to the cell lysate. The mixture was incubated at 37°C for 10 min. Tyrosinase activity was measured with a spectrophotometer to quantify the oxidation of L-DOPA to DOPAchrome. The absorbance was measured at 475 nm. The tyrosinase activity was expressed as a percentage of control (=100%). Control corresponds to the tyrosinase activity measured in the cell lysate from normal murine melanocytes treated with carrier solvent.

[2] = system: normal murine melanocytes treated with alpha melanocyte stimulating hormone (α-MSH); experiment: Melanin content in melanocytes treated with α-MSH; format: cell-based; conditions: 48 hours, α-MSH 100 nM; PBPE 20 µM, tesmilifene 10 µM, umbelliprenin 40 µM (Figure 3)
Protocol: as §1

[3] = system: normal murine melanocytes exposed to ultraviolet (UV-B) irradiation; experiment: Melanin content in melanocytes exposed to UV-B irradiation; format: cell-based; conditions: UV-B 20 mJ/cm^2; PBPE 20 µM, tesmilifene 10 µM, umbelliprenin 40 µM (Figure 4)
Protocol: as §1

[4] = system: Tyrosinase; experiment: Tyrosinase activity in lysates of treated melanocytes (L-DOPA oxidation); format: cell-based, murine; conditions: 48 hours; PBPE 20 µM, tesmilifene 10 µM, umbelliprenin 40 µM; cell lysate, percentage of control (Figure 6)
Protocol: as §2, with “Tyrosinase activity was measured using a previously reported procedure (Ando H, J. Lipid Res., 1999, 40, p. 1312). […] The cell” for “The cell”, “carrier solvent. Melanin content of treated murine melanocytes was also measured as described in example 4.” for “carrier solvent.”

[5] = system: melanogenic genes (Tyrosinase, Mitf, TRP-1 and TRP-2); experiment: Expression of genes encoding melanogenic proteins (RT-qPCR); format: cell-based, murine; conditions: 48 hours; PBPE 20 µM, tesmilifene 10 µM, umbelliprenin 40 µM (Figure 8)
Protocol: We then performed RNA extraction. We added Trizol® (1 ml) on treated cells. After incubation (5 minutes at room temperature), we transferred the cells suspension into Eppendorf vial. Chloroform (200 µl at 4°C) was added, the mixture was manually stirred for 15 seconds, incubated for 5 minutes at room temperature and then centrifuged at 16000 g for 10 minutes at 4°C. Aqueous colorless layer was collected and isopropanol (500 µL at -20°C) was added. The mixture was manually stirred for 15 seconds, incubated for 15 minutes at room temperature and the centrifuged at 16200 g for 10 minutes at 4°C. The supernatant was discarded and the precipitate was washed with 1 mL of EtOH/H2O (3/1) at -20°C. The mixture was centrifuged at 16000 g for 10 minutes at 4°C, the supernatant discarded and the pellet was allowed to dry for 10 minutes at room temperature. The pellet was dissolved in RNAse-free water (30 µL). The amount and purity of RNA was determined by measuring the absorbance at 230, 260 and 280 nm with a nanodrop ND-1000 spectrophotometer (Thermo Scientific) according to the manufacturer's instructions.
We then performed RT-qPCR experiment. We prepared a mixture containing RNA (1 µg), reverse transcriptase (1 µL), the reaction mixture « iScript®5x » (4 µL) and RNAse-free water (qsp 20 µl). The mixture was vortexed, centrifuged for few seconds and then introduced into a thermocycler. Reverse transcription was performed using the following program : 5 min at 25°C, 30 min at 42°C and then 5 min at 85°C. Eppendorf vial was maintained at 4°C until the beginning of the qPCR experiment. We then examined the expression of melanogenic genes (Tyrosinase, Mitf, TRP-1 and TRP-2) and housekeeping genes (glyceraldehyde 3-phosphate dehydrogenase and Cyclophiline A1) by qPCR. For this purpose, cDNA was diluted with RNAse-free water (180 µL) and then we prepared a mixture containing: primers, Syber Green® and RNAse-free water. We mixed in a 96-well plate cDNA (5 µL) and the mixture (20 µL). […]

[6] = system: normal murine melanocytes; experiment: Cytotoxicity, trypan blue cell viability; conditions: 24, 48 and 72 hours; PBPE 20 µM, tesmilifene 10 µM, umbelliprenin 40 µM (Figure 9)
Protocol: Normal murine melanocytes were seeded and treated for 24, 48 and 72 hours with PBPE (20 µM), tesmilifene (10 µM), umbelliprenin (40 µM) or carrier solvent (DMSO for umbelliprenin and ethanol for tesmilifene or PBPE). Cells were detached by trypsinization, collected in phosphate buffer saline and centrifuged at 1500 rpm for 5 minutes at 4°C. Cells pellets were resuspended in the trypan blue solution (0.25%, w/v in PBS) and counted in a Malassez cell under a light microscope. The percentage of cell viability was calculated using the following formula: % cell viability = [1-(blue cells/total cells)] x 100 [formula]

[7] = system: normal murine melanocytes; experiment: Whitening effect on melanocyte cell pellet (photograph); format: cell-based; conditions: umbelliprenin 40 µM, 48 hours (Figure 7)
Protocol: Normal murine melanocytes were seeded and treated for 48 hours with umbelliprenin (40 µM) or carrier solvent (DMSO). […] Cells pellet was washed with phosphate buffer saline, centrifuged and the supernatant was discarded. Cell pellets were then photographed.

[8] = PBPE 20 µM, tesmilifene 10 µM, umbelliprenin 40 µM vs kojic acid 100 µM (Figure 6)

Compound	melanin content [1]	diminution of melanin content compared with kojic acid [1, 8]	melanin content in presence of α-MSH [2]	melanin content after UV-B irradiation [3]	tyrosinase activity [4]	expression of melanogenic genes [5]	cell viability [6]	diminution of melanin content compared with kojic acid ([1]; increasing doses of umbelliprenin vs 100µM kojic acid (Figure 1))	appearance of melanocytes (cell pellet) versus carrier solvent [7]
c1ccc(Cc2ccc(OCCN3CCCC3)cc2)cc1 [PBPE]	significantly decrease melanin content in a dose dependent manner	higher	inhibits the melanogenic effect of α-MSH	inhibits the melanogenic effect of UV-B	decrease tyrosinase activity levels	this effect was not observed	no significant impact		
CCN(CC)CCOc1ccc(Cc2ccccc2)cc1 [tesmilifene]	significantly decrease melanin content in a dose dependent manner	higher	inhibits the melanogenic effect of α-MSH	inhibits the melanogenic effect of UV-B	decrease tyrosinase activity levels	this effect was not observed			
CC(C)=CCC/C(C)=C/CC/C(C)=C/COc1ccc2ccc(=O)oc2c1 [umbelliprenin]	significantly decreases melanin content in a dose dependent manner	higher	inhibits the melanogenic effect of α-MSH	inhibits the melanogenic effect of UV-B	decrease tyrosinase activity levels	significantly repressed		higher	much lighter
